This passage reports solubility results from the OPERA property sets (Mansouri et al. 2018).

In brackets after ≈: the same amount, converted by molar mass.

Conditions in the first data set: not given
Consider `COC(=O)c1cc(O)c(O)c(O)c1`, for which the solubility (as a rule, the dissolved amount per volume that the medium holds) is 57.6 mM (≈ 10.6 mg/mL). On the same count and under the same terms, for `NCCNCCNCCNCCN` the value was 34500 mM (≈ 6540 mg/mL); for `O=C(O)c1cc(Cl)cc(Cl)c1`, 0.77 mM (≈ 0.147 mg/mL); for `O=C(Nc1ccccc1)Nc1ccccc1`, 0.707 mM (≈ 0.15 mg/mL). Still for that read-out and setting: for `Nc1nc(=O)c2[nH]c(=O)c(=O)[nH]c2[nH]1` the value was 0.00683 mM (≈ 0.00133 mg/mL). The same measure, in the same setting: for `c1ccc2c3c(ccc2c1)-c1cccc2cccc-3c12` the value was 9.91e-06 mM (≈ 2.5e-06 mg/mL); for `CCOP(=S)(OCC)OCCSCC`, 0.232 mM (≈ 0.06 mg/mL); for `CN(C)C(=O)OC1=CC(=O)CC(C)(C)C1`, 142 mM (≈ 30 mg/mL).

Take `Nc1ccc(O)c2c1C(=O)c1ccccc1C2=O`: the solubility turned out to be 0.15 mM (≈ 0.0359 mg/mL).

The data set is the same for the next values; noted with them: 20 °C.
Compound `CCc1ccc(CC)cc1` came in with a solubility of 0.185 mM (≈ 0.0248 mg/mL). Still for that read-out and setting: for `CCSCc1ccccc1OC(=O)NC` the value was 8.08 mM (≈ 1.82 mg/mL). On the same count and under the same terms, for `Clc1ccc(-c2ccc(Cl)c(Cl)c2)cc1` the value was 0.000279 mM (≈ 7.19e-05 mg/mL); for `CC(C)Cl`, 39.5 mM (≈ 3.1 mg/mL); for `C#CC(C)N(C)C(=O)Nc1ccc(Cl)cc1` (stereo unspecified), 0.127 mM (≈ 0.03 mg/mL).

Regarding `Cc1occc1C(=O)Nc1ccccc1`, the solubility is 0.497 mM (≈ 0.1 mg/mL). Same read-out and setting: for `OCCN(CCO)c1ccccc1` the value was 184 mM (≈ 33.4 mg/mL); for `O=C(O)Cn1c(=O)sc2cccc(Cl)c21`, 2.46 mM (≈ 0.6 mg/mL). On the same count and under the same terms, for `CCCCCCCC(=O)OC` the value was 0.407 mM (≈ 0.0644 mg/mL). Same read-out and setting: for `O=C(O)c1nc[nH]c1C(=O)O` the value was 3.2 mM (≈ 0.5 mg/mL); for `CC(C)CNC(=O)N1CCNC1=O`, 7.02 mM (≈ 1.3 mg/mL).

`C[C@H](CCC(=O)NCC(=O)O)[C@H]1CC[C@H]2[C@@H]3[C@H](O)C[C@@H]4C[C@H](O)CC[C@]4(C)[C@H]3C[C@H](O)[C@]12C`: the solubility was found to be 0.00709 mM (≈ 0.0033 mg/mL).

Compound `Clc1ccc(-c2cc(Cl)c(Cl)cc2Cl)cc1Cl` came in with a solubility of 4.1e-05 mM (≈ 1.34e-05 mg/mL). In turn, `C=C(C(=O)O)c1ccccc1` yielded a solubility of 8.77 mM (≈ 1.3 mg/mL). Same read-out and setting: for `COCCCNc1nc(NC(C)C)nc(SC)n1` the value was 1.18 mM (≈ 0.32 mg/mL). In turn, `Clc1ccc(-c2c(Cl)cc(Cl)c(Cl)c2Cl)cc1Cl` returned a solubility of 2.24e-05 mM (≈ 8.07e-06 mg/mL). `O=Cc1ccc2c(c1)OCO2` came in with a solubility of 23.3 mM (≈ 3.5 mg/mL). Same read-out and setting: to `CCOC(=O)CC` belongs 188 mM (≈ 19.2 mg/mL); to `O=C(Nc1ccccc1)c1ccccc1I`, 0.0619 mM (≈ 0.02 mg/mL). Same read-out and setting: for `N#CCC(N)=O` the value was 1550 mM (≈ 130 mg/mL); for `FC(F)(F)c1cccc(C(c2ccccc2)(c2ccccc2)n2cncn2)c1`, 3.95e-06 mM (≈ 1.5e-06 mg/mL). Take `Clc1ccc2c(c1)Oc1cc(Cl)c(Cl)c(Cl)c1O2`: the solubility stood at 1.34e-06 mM (≈ 4.3e-07 mg/mL).

As for `Clc1ccc2c(c1)Oc1c(Cl)c(Cl)c(Cl)c(Cl)c1O2`, the solubility amounted to 3.37e-07 mM (≈ 1.2e-07 mg/mL). Still for that read-out and setting: to `COc1ccc2c3c1O[C@H]1[C@@H](O)C=C[C@H]4[C@@H](C2)N(C)CC[C@@]341` belongs 30.1 mM (≈ 9 mg/mL).

The data set is the same for the next values; noted with them: 21 °C.
For the compound `C=C1c2cccc(O)c2C(=O)C2=C(O)[C@]3(O)C(=O)C(C(N)=O)=C(O)[C@@H](N(C)C)[C@@H]3[C@@H](O)[C@H]12`, the solubility was 17.1 mM (≈ 7.55 mg/mL).

Staying with this data set, now noted: 22 °C.
`CC(Oc1ccccc1Cl)C(=O)O` (stereo unspecified): the solubility came out at 5.98 mM (≈ 1.2 mg/mL). The same measure, in the same setting: for `CC(=O)c1ccc(O)cc1` the value was 72.7 mM (≈ 9.9 mg/mL).

With `CCCOC=O`, the solubility stood at 250 mM (≈ 22 mg/mL).

Still in this data set, the particulars now being: 23 °C.
The compound `O=C(O)[C@@H](CO)c1ccccc1` yielded a solubility of 119 mM (≈ 19.8 mg/mL).

Still in this data set, the particulars now being: 24 °C.
For `CC(=O)OCCN1CCN(CCCN2c3ccccc3Sc3ccc(Cl)cc32)CC1`, the solubility amounted to 0.02 mM (≈ 0.00892 mg/mL). Same read-out and setting: to `O=C(O)c1c2ccccc2cc2ccccc12` belongs 0.382 mM (≈ 0.085 mg/mL).

`CCN(CC)N=O` showed a solubility of 1040 mM (≈ 106 mg/mL).

Still in this data set, the particulars now being: 25 °C.
`C[C@H]1c2cccc(O)c2C(=O)C2=C(O)[C@]3(O)C(=O)C(C(N)=O)=C(O)[C@@H](N(C)C)[C@@H]3[C@@H](O)[C@@H]21` yielded a solubility of 1.42 mM (≈ 0.63 mg/mL).

`CC(C)CCBr` came in with a solubility of 1.3 mM (≈ 0.196 mg/mL). The same measure, in the same setting: for `C#CCCCC` the value was 4.73 mM (≈ 0.388 mg/mL); for `Clc1cc(Cl)c(Cl)c(Cl)c1`, 0.0236 mM (≈ 0.0051 mg/mL); for `COP(=O)(Oc1ccccc1)Oc1ccccc1`, 7.57 mM (≈ 2 mg/mL).

On to `C=CCC1(C(C)C)C(=O)NC(=O)NC1=O`, for which the solubility was 19.4 mM (≈ 4.08 mg/mL).

The compound `CCC(C)c1ccccc1` (stereo unspecified) showed a solubility of 0.131 mM (≈ 0.0176 mg/mL).

On to `CC(C)(N)C(=O)O`, for which the solubility amounted to 1760 mM (≈ 181 mg/mL).

`C[C@@H](O)C(N)=O` showed a solubility of 8780 mM (≈ 782 mg/mL). The same measure, in the same setting: to `CCCCCCC(=O)O` belongs 21.6 mM (≈ 2.82 mg/mL); to `COc1c2occc2c(OC)c2c(=O)cc(C)oc12`, 4 mM (≈ 1.04 mg/mL). `CCCC(C)CC` (stereo unspecified) had a solubility of 0.0494 mM (≈ 0.00495 mg/mL). The same measure, in the same setting: to `O=C(O)c1cc(I)cc(I)c1O` belongs 0.493 mM (≈ 0.192 mg/mL).

Compound `N[C@@H](Cc1cnc[nH]1)C(=O)O` showed a solubility of 294 mM (≈ 45.6 mg/mL).

As to `Clc1ccc(-c2cccc(Cl)c2)cc1`, the solubility was 0.000398 mM (≈ 8.88e-05 mg/mL). Consider `O=C(O)COc1ccccc1Cl`, for which the solubility worked out at 6.86 mM (≈ 1.28 mg/mL).

For `CCC(C)(C)c1ccccc1`, the solubility is 0.0708 mM (≈ 0.0105 mg/mL). `CCC1(C2=CCCCC2)C(=O)NC(=O)NC1=O` had a solubility of 6.77 mM (≈ 1.6 mg/mL). Same read-out and setting: for `O=c1cc[nH]c(=O)[nH]1` the value was 32.1 mM (≈ 3.6 mg/mL). The same measure, in the same setting: for `CC1CCC(C(C)C)C(O)C1` (stereo unspecified) the value was 2.91 mM (≈ 0.455 mg/mL). `Nc1ccc(-c2ccc(N)cc2)cc1` showed a solubility of 1.75 mM (≈ 0.322 mg/mL).

Take `O=C(O)c1ccccc1`: the solubility is 24.8 mM (≈ 3.03 mg/mL). The same measure, in the same setting: for `C=CCCCC=C` the value was 0.458 mM (≈ 0.044 mg/mL).

`O=[N+]([O-])O[C@H]1CO[C@H]2[C@@H]1OC[C@H]2O[N+](=O)[O-]`: the solubility stood at 2.33 mM (≈ 0.55 mg/mL). On to `O=C(O)CNC(=O)c1ccccc1`, for which the solubility came out at 20.9 mM (≈ 3.75 mg/mL). On the same count and under the same terms, to `CCCCC(N)C(=O)O` (racemic) belongs 88.5 mM (≈ 11.6 mg/mL). The same measure, in the same setting: for `CC1=CCCCC1` the value was 0.541 mM (≈ 0.052 mg/mL); for `c1ccc2c(c1)Nc1ccccc1S2`, 0.00798 mM (≈ 0.00159 mg/mL). Take `CC(=O)O[C@]1(C(C)=O)CC[C@H]2[C@@H]3C=C(Cl)C4=CC(=O)C=C[C@]4(C)[C@H]3CC[C@@]21C`: the solubility came to 0.0113 mM (≈ 0.00457 mg/mL). Regarding `CCCCCCCCCCCCCC(=O)O`, the solubility is 0.00468 mM (≈ 0.00107 mg/mL). Same read-out and setting: for `CC(=O)O[C@@H](C(=O)O)c1ccccc1` the value was 58.7 mM (≈ 11.4 mg/mL); for `CC(=O)C(C)(C)C`, 190 mM (≈ 19 mg/mL).

The compound `Cc1cc2ccccc2cc1C` gave a solubility of 0.0127 mM (≈ 0.00199 mg/mL). Turning to `CC(Oc1ccc(Cl)cc1)C(=O)O` (stereo unspecified), the solubility turned out to be 7.33 mM (≈ 1.47 mg/mL). Same read-out and setting: for `CCC(N)C(=O)O` (stereo unspecified) the value was 2050 mM (≈ 211 mg/mL). The compound `Cc1ccc(S(N)(=O)=O)cc1` yielded a solubility of 18.4 mM (≈ 3.16 mg/mL).

On to `Cc1cc(C)c2ccccc2n1`, for which the solubility was 11.4 mM (≈ 1.79 mg/mL). The compound `OC(c1ccccc1)(c1ccccc1)c1ccccc1` had a solubility of 5.5 mM (≈ 1.43 mg/mL). Still for that read-out and setting: to `Cc1cccc(O)c1C` belongs 37.4 mM (≈ 4.57 mg/mL); to `c1ccc(Cc2ccccc2)cc1`, 0.0838 mM (≈ 0.0141 mg/mL).

Staying with this data set, now noted: 27 °C.
As for `CCCCOC=O`, the solubility worked out at 74 mM (≈ 7.56 mg/mL).

Still in this data set, the particulars now being: 30 °C.
Consider `Cc1ccc(S(=O)(=O)NC(=O)NN2CCCCCC2)cc1`, for which the solubility came to 0.21 mM (≈ 0.0654 mg/mL). The compound `CC1OC(C)OC(C)O1` (stereo unspecified) showed a solubility of 847 mM (≈ 112 mg/mL). On the same count and under the same terms, for `CN(C)CCN(Cc1cccs1)c1ccccn1` the value was 2.3 mM (≈ 0.601 mg/mL); for `CN(C)CCN(Cc1ccccc1)c1ccccn1`, 2.3 mM (≈ 0.587 mg/mL).
